According to patent US20260373038A1, “A PERSONAL CARE COMPOSITION” (Conopco, Inc., d/b/a UNILEVER, priority 2022, published 2026):

System: collagen type I alpha I chain (COL1A1) gene, normal human dermal fibroblasts (NHDF)
Experiment: Fold change in gene expression of COL1A1 in normal human dermal fibroblasts (qPCR, normalized to ACTB)
Assay type: cell-based
Conditions: 48 hours, relative to blank control (1.0)
Procedure: The normal human dermal fibroblasts (NHDF) (Biocell, Xi'an, China, Lot: Fb20081902) were incubated in medium together with or without actives for 48 hours. After incubation, the total RNA for each NHDF was extracted using RNAex Pro reagent (Accurate Biotechnology, Cat: AG21102) according to manufacturer's protocol.
The extracted RNA was quantified using Nanodrop spectrometer (Thermo Fisher Scientific, Waltham, MA, US) and reverse transcribed to generate the template cDNA using the Evo M-MLV RT Premix for qPCR (Accurate Biotechnology, Cat: AG11706) according to manufacturer's protocol. Gene expression of COL1A1 gene was analyzed by polymerase chain reaction (PCR) using SYBR® Green Premix Pro Taq HS qPCR Kit (Accurate Biotechnology, AG11701). The actin beta (ACTB) gene was selected as the housekeeping gene and all data on relative expression of the target genes was normalized to ACTB gene. The fold changes in expression were calculated relative to the blank control (medium having no active).

| Molecule | Fold change of COL1A1 expression (1 μM of RP (group B)) | Fold change of COL1A1 expression (10 μM of RP (group E)) | Fold change of COL1A1 expression (5 μM of LCC (group D)) | Fold change of COL1A1 expression (10 μM of LCC (group G)) | Fold change of COL1A1 expression (50 μM of LCC (group A)) |
| --- | --- | --- | --- | --- | --- |
| CCC(=O)OC/C=C(C)/C=C/C=C(C)/C=C/C1=C(C)CCCC1(C)C [RP, Retinyl propionate] | 1.4 fold change | 1.5 fold change |  |  |  |
| Lysine carboxymethyl cysteinate [LCC] |  |  | 1.4 fold change | 1.5 fold change | 1.3 fold change |
